Source: patent publication US9527859B2, “Amidopyridine derivative and use thereof” (Mitsubishi Tanabe Pharma Corporation, priority 2012, dated 2016)

Test system: production of IL-17 in mouse splenocytes stimulated by recombinant mouse interleukin-23
Test: Production of IL-17 induced when mouse splenocytes were stimulated by rm-IL-23 (ELISA)
Type: cell-based
Details: Splenocyte, inhibition of IL-17 production, rm-IL-23 1 nmol/L, 72 hours
Experimental: Effect on Production of IL-17 Induced when Mouse Splenocytes were Stimulated by Recombinant Mouse Interleukin-23 (rm-IL-23)
RPMI1640 media (Sigma-Aldrich) were used as a medium, to which 50 units/mL penicillin G potassium/50 μg/mL streptomycin (Gibco) and […] 2-mercaptoethanol (Sigma-Aldrich) were added, and then thereto was added 10% of fetal calf serum (FCS; Cell Culture Technology) which was treated at 56° C. for 30 minutes to be inactivated, and the mixture was used in the Test. The test compound was dissolved in dimethylsulfoxide and then diluted with 10% FCS-containing RPMI1640 medium to a desired concentration to be used. The spleens were aseptically taken out from 6 to 7 week-old male DBA/1J mice (Charles River Japan, Inc.) and a single cell suspension of splenocytes was prepared, which was hemolyzed by hypotonic treatment with a mixed solution of 0.83% aqueous solution of ammonium chloride and Tris-HCl buffer of pH 7.65 (9:1). A cell suspension prepared by using 10% FCS-containing RPMI1640 medium was added to a flat-bottomed 96 well microtestplate (Coaster) at 2×10^5 cells/well. Thereto were added test compounds and rm-IL-23 (R&D systems) were diluted with a medium to 1 to 1,000 nmol/L and 1 nmol/L of the final concentration, respectively, and the mixture was cultured at 37° C., 5% carbon dioxide and 95% air for 72 hours. After completion of the culture, culture supernatant was sampled and production amounts of IL-17 therein were determined by ELISA method. After sampling the supernatant, WST-8 (Seikagaku Corporation) was added at 10 μl/well and cultured at 37° C., 5% carbon dioxide and 95% air for 4 hours. Then, absorbance (O.D.: Optical Density) at 450 nm was measured by a microplate reader and the value was adopted as an index of cell survivability. An inhibition rate was calculated according to the following formula on the basis of an average of production amounts of IL-17 and O.D. values of the well containing a test compound of each concentration. Inhibition (%)=(1−(Average value of well with addition of test compound)/(Average value of well without addition of test compound))×100
Based on the dose-response curve obtained by plotting the inhibition rate in the longitudinal axis and the concentration in the horizontal axis, the concentration of the compound which inhibits the level to 50% of the value of the control group (IC50) (nmol/L) was determined by linear regression analysis.

IC50 | Structure (SMILES)
150 nM | COc1ccc(-n2ncc(C(=O)Nc3cnc(N4CCC(C(C)(C)F)CC4)c(C)c3)c2C)cc1 [Example 35, N-{6-[4-(1-fluoro-1-methylethyl)piperidin-1-yl]-5-methylpyridin-3-yl}-1-(4-methoxyphenyl)-5-methyl-1H-pyrazole-4-carboxamide]
171 nM | Cc1cc(NC(=O)c2cnn(-c3ccc(F)c(F)c3)c2C)cnc1N1CCC(C(C)O)CC1 (stereo not shown) [Example 27, 1-(3,4-difluorophenyl)-N-{6-[4-(1-hydroxyethyl)piperidin-1-yl]-5-methylpyridin-3-yl}-5-methyl-1H-pyrazole-4-carboxamide]
185 nM | Cc1cc(NC(=O)c2cc(-c3ccc(Cl)cc3)cs2)cnc1N1CCC(C(C)(C)O)CC1 [Example 80, 4-(4-chlorophenyl)-N-{6-[4-(1-hydroxy-1-methylethyl)piperidin-1-yl]-5-methylpyridin-3-yl}thiophene-2-carboxamide]
175 nM | Cc1c(C(=O)Nc2cnc(N3CCC(CCO)CC3)c(C#N)c2)cnn1-c1ccc(F)cc1 [Example 30, N-{5-cyano-6-[4-(2-hydroxyethyl)piperidin-1-yl]pyridin-3-yl}-1-(4-fluorophenyl)-5-methyl-1H-pyrazole-4-carboxamide]
91.1 nM | Cc1cc(NC(=O)c2csc(-c3ccc(Cl)cc3)n2)cnc1N1CCC(C(C)(C)O)CC1 [Example 82, 2-(4-chlorophenyl)-N-{6-[4-(1-hydroxy-1-methylethyl)piperidin-1-yl]-5-methylpyridin-3-yl}thiazole-4-carboxamide]
264 nM | COC1CCN(c2ncc(NC(=O)c3cnn(-c4ccc(Cl)cc4)c3C)cc2C)CC1 [Example 16, 1-(4-chlorophenyl)-N-[6-(4-methoxypiperidin-1-yl)-5-methylpyridin-3-yl]-5-methyl-1H-pyrazole-4-carboxamide]
193 nM | Cc1c(C(=O)Nc2cnc(N3CCC(O)CC3)c(C#N)c2)cnn1-c1ccc(C(C)(C)C)cc1 [Example 23, 1-(4-tert-butylphenyl)-N-[5-cyano-6-(4-hydroxypiperidin-1-yl)pyridin-3-yl]-5-methyl-1H-pyrazole-4-carboxamide]
5.35 nM | Cc1cc(NC(=O)c2cnn(-c3ccc(C(F)(F)F)cn3)c2C)cnc1N1CCC(CC(C)(C)O)CC1 [Example 65, N-{6-[4-(2-hydroxy-2-methylpropyl)piperidin-1-yl]-5-methylpyridin-3-yl}-5-methyl-1-[5-(trifluoromethyl)pyridin-2-yl]-1H-pyrazole-4-carboxamide]
31.8 nM | Cc1cc(NC(=O)c2cnn(-c3ncc(Cl)cc3Cl)c2C)cnc1N1CCC(C(C)(C)O)CC1 [Example 59, 1-(3,5-dichloropyridin-2-yl)-N-{6-[4-(1-hydroxy-1-methylethyl)piperidin-1-yl]-5-methylpyridin-3-yl}-5-methyl-1H-pyrazole-4-carboxamide]
331 nM | Cc1c(C(=O)Nc2cnc(N3CCC(O)CC3)c(C3CC3)c2)cnn1-c1ccc(Cl)cc1Cl [Example 9, N-[5-cyclopropyl-6-(4-hydroxypiperidin-1-yl)pyridin-3-yl]-1-(2,4-dichlorophenyl)-5-methyl-1H-pyrazole-4-carboxamide]
15.6 nM | Cc1cc(NC(=O)c2cnn(-c3ccc(Cl)cc3)c2C)cnc1N1CCC(C(C)(C)O)CC1 [Example 63, 1-(4-chlorophenyl)-N-{6-[4-(1-hydroxy-1-methylethyl)piperidin-1-yl]-5-methylpyridin-3-yl}-5-methyl-1H-pyrazole-4-carboxamide]
19.4 nM | Cc1cc(NC(=O)c2cnn(-c3ccc(C(F)(F)F)cc3)c2C)cnc1N1CCC(C(C)(C)O)CC1 [Example 61, N-{6-[4-(1-hydroxy-1-methylethyl)piperidin-1-yl]-5-methylpyridin-3-yl}-5-methyl-1-[4-(trifluoromethyl)phenyl]-1H-pyrazole-4-carboxamide]
49.6 nM | Cc1cc(NC(=O)c2cnn(-c3ccc(C(F)(F)F)cn3)c2C)cnc1N1CCC(C(C)O)CC1 (stereo not shown) [Example 55, N-{6-[4-(1-hydroxyethyl)piperidin-1-yl]-5-methylpyridin-3-yl}-5-methyl-1-[5-(trifluoromethyl)pyridin-2-yl]-1H-pyrazole-4-carboxamide]
109 nM | Cc1cc(NC(=O)c2c[nH]c(-c3ccc(C(F)(F)F)cc3)n2)cnc1N1CCC(C(C)(C)O)CC1 [Example 75, N-{6-[4-(1-hydroxy-1-methylethyl)piperidin-1-yl]-5-methylpyridin-3-yl}-2-[4-(trifluoromethyl)phenyl]-1H-imidazole-4-carboxamide]
54.1 nM | Cc1cc(NC(=O)c2cnn(-c3ccccc3)c2C)cnc1N1CCC(CC(C)(C)O)CC1 [Example 50, N-{6-[4-(2-hydroxy-2-methylpropyl)piperidin-1-yl]-5-methylpyridin-3-yl}-5-methyl-1-phenyl-1H-pyrazole-4-carboxamide]
142 nM | Cc1c(C(=O)Nc2cnc(N3CCC(O)CC3)c(Cl)c2)cnn1-c1ccc(Cl)cc1 [Example 36, N-[5-chloro-6-(4-hydroxypiperidin-1-yl)pyridin-3-yl]-1-(4-chlorophenyl)-5-methyl-1H-pyrazole-4-carboxamide]
153 nM | COCC1CCN(c2ncc(NC(=O)c3cnn(-c4ccc(C(F)(F)F)cc4)c3C)cc2C)CC1 [Example 33, N-{6-[4-(1-methoxymethyl)piperidin-1-yl]-5-methylpyridin-3-yl}-5-methyl-1-[4-(trifluoromethyl)phenyl]-1H-pyrazole-4-carboxamide]
140 nM | N#Cc1cc(NC(=O)c2ccn(-c3ccc(F)cc3)c2)cnc1N1CCC(CCO)CC1 [Example 37, N-{5-cyano-6-[4-(2-hydroxyethyl)piperidin-1-yl]pyridin-3-yl}-1-(4-fluorophenyl)-1H-pyrrole-3-carboxamide]
36.7 nM | Cc1ccc(-n2ncc(C(=O)Nc3cnc(N4CCC(CC(C)(C)O)CC4)c(C)c3)c2C)nc1 [Example 57, N-{6-[4-(2-hydroxy-2-methylpropyl)piperidin-1-yl]-5-methylpyridin-3-yl}-5-methyl-1-(5-methylpyridin-2-yl)-1H-pyrazole-4-carboxamide]
17 nM | Cc1cc(NC(=O)c2cnn(-c3ccc(C(F)(F)F)cn3)c2C)cnc1N1CCC(C(C)(C)O)CC1 [Example 62, N-{6-[4-(1-hydroxy-1-methylethyl)piperidin-1-yl]-5-methylpyridin-3-yl}-5-methyl-1-[5-(trifluoromethyl)pyridin-2-yl]-1H-pyrazole-4-carboxamide]
53.5 nM | Cc1c(C(=O)Nc2cnc(N3CCC(CCO)CC3)c(C#N)c2)cnn1-c1ccc(Cl)cc1 [Example 51, 1-(4-chlorophenyl)-N-{5-cyano-6-[4-(2-hydroxyethyl)piperidin-1-yl]pyridin-3-yl}-5-methyl-1H-pyrazole-4-carboxamide]
205 nM | Cc1c(C(=O)Nc2cnc(N3CCC(=O)CC3)c(C3CC3)c2)cnn1-c1ccc(Cl)cc1 [Example 70, 1-(4-chlorophenyl)-N-[5-cyclopropyl-6-(piperidin-4-on-1-yl)pyridin-3-yl]-5-methyl-1H-pyrazole-4-carboxamide]
106 nM | Cc1c(C(=O)Nc2cnc(N3CCC(CCO)CC3)c(C3CC3)c2)cnn1-c1ccc(Cl)cc1 [Example 42, 1-(4-chlorophenyl)-N-{5-cyclopropyl-6-[4-(2-hydroxyethyl)piperidin-1-yl]pyridin-3-yl}-5-methyl-1H-pyrazole-4-carboxamide]
170 nM | Cc1cc(NC(=O)c2cnn(-c3ccc(F)cc3)c2C)cnc1N1CCC(C(C)O)CC1 (stereo not shown) [Example 28, 1-(4-fluorophenyl)-N-{6-[4-(1-hydroxyethyl)piperidin-1-yl]-5-methylpyridin-3-yl}-5-methyl-1H-pyrazole-4-carboxamide]
67.6 nM | Cc1cc(NC(=O)c2cnn(-c3ccc(Cl)cc3)n2)cnc1N1CCC(C(C)(C)O)CC1 [Example 85, 2-(4-chlorophenyl)-N-{6-[4-(1-hydroxy-1-methylethyl)piperidin-1-yl]-5-methylpyridin-3-yl}-2H-[1,2,3]triazole-4-carboxamide]
